Assay results taken from ChEMBL document CHEMBL4152360 (Bioorg Med Chem, 2018).
Activity calls are given as the source filed them. The rule behind the calls is not given here.

Legend:
[1] = molecular target: T1, Casein kinase II subunit alpha (Homo sapiens, UniProt P68400); assay: Displacement of ARC-1504/ARC-1513-5O from CK2alpha (unknown origin) (1 to 335 residues) after 15 to 60 mins by luminescence assay
[2] = molecular target: T1, Casein kinase II subunit alpha; assay: Displacement of ARC-1504/ARC-1513-5O from CK2alpha (unknown origin) (1 to 335 residues) assessed as photoluminescence lifetime using non-deoxygenated solution after 15 to 60 mins by luminescence assay
[3] = molecular target: T1, Casein kinase II subunit alpha; assay: Displacement of 5-TAMRA-labeled ARC-1530 from CK2alpha (unknown origin) (1 to 335 residues) after 15 to 60 mins by luminescence assay
[4] = molecular target: T1, Casein kinase II subunit alpha; assay: Displacement of ARC-1504/ARC-1513-5O from CK2alpha (unknown origin) (1 to 335 residues) assessed as maximal luminescence intensity of the complex after 15 to 60 mins by luminescence assay relative to ARC-1527
[5] = molecular target: Casein kinase II subunit alpha' (Homo sapiens) (UniProt P19784); assay: Displacement of ARC-1504/ARC-1513-5O from CK2alpha' (unknown origin) (1 to 335 residues) assessed as photoluminescence lifetime using non-deoxygenated solution after 15 to 60 mins by luminescence assay
[6] = molecular target: T1, Casein kinase II subunit alpha; assay: Displacement of ARC-1504/ARC-1513-5O from CK2alpha (unknown origin) (1 to 335 residues) assessed as photoluminescence lifetime using deoxygenated solution after 15 to 60 mins by luminescence assay
[7] = molecular target: T2, Casein kinase II subunit alpha (Mus musculus) (UniProt Q60737); assay: Binding affinity to RFP-tagged CK2alpha in mouse NIH/3T3 cell lysate at 10 nM by luminescence assay
T2 sequence (whole entry): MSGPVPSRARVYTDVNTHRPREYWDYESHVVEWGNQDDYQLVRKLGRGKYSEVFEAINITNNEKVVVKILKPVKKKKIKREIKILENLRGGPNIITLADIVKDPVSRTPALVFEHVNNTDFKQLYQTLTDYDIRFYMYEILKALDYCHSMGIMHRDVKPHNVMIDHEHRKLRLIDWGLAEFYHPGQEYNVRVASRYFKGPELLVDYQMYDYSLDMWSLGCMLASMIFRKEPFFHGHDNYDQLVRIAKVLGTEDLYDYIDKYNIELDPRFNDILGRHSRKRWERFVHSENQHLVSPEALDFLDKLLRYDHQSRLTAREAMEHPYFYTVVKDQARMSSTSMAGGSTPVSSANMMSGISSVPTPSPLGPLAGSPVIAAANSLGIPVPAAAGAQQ

[8] = molecular target: T2, Casein kinase II subunit alpha (Mus musculus); assay: Binding affinity to RFP-tagged CK2alpha in mouse NIH/3T3 cell lysate at 10 nM by luminescence assay relative to native CK2
Mus musculus [9] = species: Mus musculus; assay: Binding affinity to CK2 in mouse NIH3T3 cell lysate at 10 nM by luminescence assay
Mus musculus [10] = species: Mus musculus; assay: Binding affinity to CK2 in mouse NIH3T3 cell lysate at 10 nM in presence of CK2 inhibitor CX-4945 by luminescence assay
[11] = molecular target: T2, Casein kinase II subunit alpha (Mus musculus); assay: Binding affinity to RFP-tagged CK2alpha in mouse NIH/3T3 cell lysate at 10 nM in presence of CK2 inhibitor CX-4945 by luminescence assay

| Kd [1] | Time [2] | Activity [3] | fold change (FC) [4] | Time [5] | Time [6] | Activity [7] | fold change (FC) [8] | Activity (Mus musculus [9]) | Activity (Mus musculus [10]) | Activity [11] | SMILES |
| --- | --- | --- | --- | --- | --- | --- | --- | --- | --- | --- | --- |
| 48 nM |  |  |  |  |  |  |  |  |  |  | Nc1ncc(-c2ccc(C(=O)O)cc2)s1 |
| 0.34 nM | 55 microsec | Active | 46 |  |  |  |  |  |  |  | NCCCC[C@@H](NC(=O)[C@@H](CC(=O)O)NC(=O)[C@@H](CC(=O)O)NC(=O)[C@@H](CC(=O)O)NC(=O)[C@@H](CC(=O)O)NC(=O)[C@@H](CC(=O)O)NC(=O)[C@@H](CC(=O)O)NC(=O)CCCCCNC(=O)CCC(=O)Nc1ncc(-c2ccc(C(=O)O)cc2)[se]1)C(=O)O |
| 0.4 nM | 62 microsec |  | 76 | 62 microsec | 165 microsec |  |  |  |  |  | CN(C)c1ccc2c(-c3ccc(C(=O)NCCCC[C@@H](NC(=O)[C@@H](CC(=O)O)NC(=O)[C@@H](CC(=O)O)NC(=O)[C@@H](CC(=O)O)NC(=O)[C@@H](CC(=O)O)NC(=O)[C@@H](CC(=O)O)NC(=O)[C@@H](CC(=O)O)NC(=O)CCCCCNC(=O)CCC(=O)Nc4ncc(-c5ccc(C(=O)O)cc5)s4)C(=O)O)cc3C(=O)[O-])c3ccc(=[N+](C)C)cc-3oc2c1 |
| 0.85 nM | 39 microsec |  | 5300 | 39 microsec | 58 microsec | Active | 10 | Active | inactive | inactive | CN(C)c1ccc2c(-c3ccc(C(=O)NCCCC[C@@H](NC(=O)[C@@H](CC(=O)O)NC(=O)[C@@H](CC(=O)O)NC(=O)[C@@H](CC(=O)O)NC(=O)[C@@H](CC(=O)O)NC(=O)[C@@H](CC(=O)O)NC(=O)[C@@H](CC(=O)O)NC(=O)CCCCCNC(=O)CCC(=O)Nc4ncc(-c5ccc(C(=O)O)cc5)[se]4)C(=O)O)cc3C(=O)[O-])c3ccc(=[N+](C)C)cc-3oc2c1 |
